Laboratory results: patent US12570615B2, “Quinazolinone derivatives” (Hoffmann-La Roche Inc., priority 2021, dated 2026)
Counter-ions that a name gives are not always drawn.

Tests used:
[1] = molecular target: BRAF (V600E) (Homo sapiens, UniProt P15056, V600E); test: KD BRAF (V600E) (Table 1); type: binding
[2] = molecular target: BRAF (wt) (Homo sapiens, UniProt P15056); test: KD BRAF (wt) (Table 1); type: binding
[3] = system: P-ERK (ERK phospho-T202/Y204) in A375 cells expressing V600E mutated BRAF; test: HTRF assay for P-ERK determination in A375 cells (BRAF inhibition); type: cell-based; conditions: Homo sapiens, A-375, P-ERK level, drug incubation 1 hour, DMSO = 100%, 10 μM Dabrafenib = 0%
Text: (§1) A375 is a cellular cancer model expressing V600E mutated BRAF and HCT116 a cellular cancer model expressing WT BRAF. First generation BRAF inhibitors such as e.g. dabrafenib induce a paradox effect on tumour cells in that they inhibit the growth of V600E mutated BRAF cells (such as e.g. A375), while they activate growth in WT BRAF cells (such as e.g. HCT 116). ERK 1,2 phosphorylation (terminal member of the phosphorylation cascade of the MAPK pathway) is hereafter reported as main readout for the activation status of the MAPK pathway. DMEM no-phenol red medium supplemented with L-glutamine was purchased from (Thermo Fisher Scientific). Fetal bovine serum (FBS) was purchased from VWR. Advanced ERK phospho-T202/Y204 kit—10,000 tests was purchased from Cisbio cat #64AERPEH. A375 (catalog #CRL-1619) and HCT116 (catalog #CCL-247) cells were originally obtained from American type Culture Collection (ATCC) and banked by the Roche repository. 384-Well microplates utilized were purchased from Greiner Bio-One, 384-well, (With Lid, HiBase, Low volume cat 784-080).
(§2) Prior to the assay, A375 and HCT116 cell lines are maintained in DMEM no-phenol red medium supplemented with 10% fetal bovine serum (FBS). Following compound treatment, P-ERK levels are determined by measuring FRET fluorescence signal induced by selective binding of 2 antibodies provided in the mentioned kit (Cisbio cat #64AERPEH) on ERK protein when phosphorylated at Thr202/Tyr204. Briefly, 8000 cells/well in 12 μl media/well are plated in the 384-well plate and left overnight in the incubator (at 37° C. with 5% CO2-humidified atmosphere), the following day the plate is treated in duplicate with test compounds, dabrafenib and PLX8394 (the latter two as controls) at the following final drug concentrations: 10 μM-3 μM 1 μM-0.3 μM-0.1 μM-0.03 μM-0, 01 μM-0.003 μM-0.001 μM, all wells are subjected to DMSO normalization and drug incubation occurs for 1 hour. Then, […] of a 4× lysis buffer supplied with the kit are added to the wells, the plate is then centrifuged for 30 second (3000 rpm) and incubated on a plate shaker for 1 h at rt.
(§3) At the end of the incubation 4 μL/well of advanced P-ERK antibody solution (prepared according to manufacturer's instruction) followed by 4 μL/well of criptate P-ERK antibody solution (prepared according to manufacturer's instruction) (Cisbio cat #64AERPEH) are added to test wells.
(§4) In order to allow proper data normalization control wells non drug treated reported in the following table are always included in each plate (according to manufacturer's instruction):
(§5) The plate is then centrifuged at 3000 rpm for 30 second, sealed to prevent evaporation and incubated overnight in the dark at room temperature.
(§6) The plate is then analyzed and fluorescence emission value collected through a Pherastast FSX (BMG Labtech) apparatus at […].
(§7) The obtained fluorescence values are processed according to the formula Ratio=[…]*10000 then the average of the ratio on the blank is subtracted to all values.
Data are normalized in the case of A375 cells (BRAF inhibition) considering the average of the ratio (blank subtracted) derived by DMSO only treated cells as 100% and by considering the average of the ratio (blank subtracted) derived by 10 μM Dabrafenib treated cells as 0%. Mean of the normalized points are fitted with sigmoidal curve and IC50 determined.

[4] = system: P-ERK (ERK phospho-T202/Y204) in HCT116 cells expressing WT BRAF; test: HTRF assay for P-ERK determination in HCT116 cells (BRAF activation); type: cell-based; conditions: Homo sapiens, HCT-116, drug incubation 1 hour, concentration giving 50% of the maximum activation achieved by Dabrafenib
Text: as §1, §2, §3, §4, §5, §6, §7
Data are normalized in the case of HCT116 cells (BRAF activation) considering the average of the ratio (blank subtracted) derived by DMSO only treated cells as 0% and by considering the average of the ratio (blank subtracted) derived by Dabrafenib treated cells at the concentration which provides the highest signal as 100%. Individual points are fitted with either sigmoidal or bell shape curves. The EC50 is the concentration at which activation equal to 50% of the maximum activation achieved by Dabrafenib is obtained.

Sequence of BRAF (V600E) (P15056 whole entry V600E): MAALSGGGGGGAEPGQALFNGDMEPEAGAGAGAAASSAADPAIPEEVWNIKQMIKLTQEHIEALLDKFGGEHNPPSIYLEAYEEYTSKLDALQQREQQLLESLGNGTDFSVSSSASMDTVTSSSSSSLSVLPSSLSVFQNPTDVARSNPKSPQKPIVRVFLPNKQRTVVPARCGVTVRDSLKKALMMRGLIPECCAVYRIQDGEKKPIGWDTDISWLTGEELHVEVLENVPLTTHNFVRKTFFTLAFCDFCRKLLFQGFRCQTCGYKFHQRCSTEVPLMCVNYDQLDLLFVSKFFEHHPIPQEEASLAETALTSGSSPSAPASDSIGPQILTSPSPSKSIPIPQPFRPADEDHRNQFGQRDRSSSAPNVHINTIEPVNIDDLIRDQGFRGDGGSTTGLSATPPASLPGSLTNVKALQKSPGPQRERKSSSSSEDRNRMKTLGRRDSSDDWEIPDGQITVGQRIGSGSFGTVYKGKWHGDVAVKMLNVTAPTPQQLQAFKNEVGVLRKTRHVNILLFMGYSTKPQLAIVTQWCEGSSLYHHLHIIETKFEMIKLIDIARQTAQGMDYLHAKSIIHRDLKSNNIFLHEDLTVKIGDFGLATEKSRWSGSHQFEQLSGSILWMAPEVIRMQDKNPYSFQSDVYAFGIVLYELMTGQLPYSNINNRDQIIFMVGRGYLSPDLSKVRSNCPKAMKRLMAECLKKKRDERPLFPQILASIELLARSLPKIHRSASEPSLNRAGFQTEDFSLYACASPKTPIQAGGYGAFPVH
Sequence of BRAF (wt) (P15056 whole entry): as the sequence (P15056 whole entry V600E) above, with E600V counted along it

SMILES	Kd [1] [nM]	Kd [2] [nM]	IC50 [3] [nM]	EC50 [4] [µM]
CCN(C)S(=O)(=O)Nc1cccc(Nc2ccc3ncn(CC(=O)NCCOC)c(=O)c3c2)c1C#N [Example 31, 2-[6-[2-cyano-3-[[ethyl(methyl)sulfamoyl]amino]anilino]-4-oxo-quinazolin-3-yl]-N-(2-methoxyethyl)acetamide]	403	137	≥ 10000	≥ 10
CCN(C)S(=O)(=O)Nc1cccc(Nc2ccc3ncn(CC4CCN(C(=O)OC(C)(C)C)CC4)c(=O)c3c2)c1C#N [Example 32, tert-butyl 4-[[6-[2-cyano-3-[[ethyl(methyl)sulfamoyl]amino]anilino]-4-oxo-quinazolin-3-yl]methyl]piperidine-1-carboxylate]	813	210	428	≥ 10
CCN(C)S(=O)(=O)Nc1cccc(Nc2ccc3ncn(CC4CCN(C(C)=O)CC4)c(=O)c3c2)c1C#N [Example 33, 3-[(1-acetyl-4-piperidyl)methyl]-6-[2-cyano-3-[[ethyl(methyl)sulfamoyl]amino]anilino]-4-oxo-quinazoline]	92.9	45.6	576	≥ 10
CCN(C)S(=O)(=O)Nc1cccc(Nc2ccc3ncn(CCOCCOCCNC(=O)OC(C)(C)C)c(=O)c3c2)c1C#N [Example 34, tert-butyl N-[2-[2-[2-[6-[2-cyano-3-[[ethyl(methyl)sulfamoyl]amino]anilino]-4-oxo-quinazolin-3-yl]ethoxy]ethoxy]ethyl]carbamate]	247	91.9	287	≥ 10
N#Cc1c(Nc2ccc3ncn(CCOCc4ccccc4)c(=O)c3c2)cccc1NS(=O)(=O)N1CC[C@@H](F)C1 [Example 36, (3R)—N-[3-[[3-(2-benzyloxyethyl)-4-oxo-quinazolin-6-yl]amino]-2-cyano-phenyl]-3-fluoro-pyrrolidine-1-sulfonamide]	273	131	114	≥ 10
CCN(C)S(=O)(=O)Nc1cccc(Nc2ccc3ncn(CCOCCOCCN)c(=O)c3c2)c1C#N [Example 38, 3-[2-[2-(2-aminoethoxy)ethoxy]ethyl]-6-[2-cyano-3-[[ethyl(methyl)sulfamoyl]amino]anilino]-4-oxo-quinazoline hydrochloride]	443	174	5740	≥ 10
N#Cc1c(Nc2ccc3ncn(CCCC(=O)O)c(=O)c3c2)cccc1NS(=O)(=O)N1CC[C@@H](F)C1 [Example 39, 4-[6-[2-cyano-3-[[(3R)-3-fluoropyrrolidin-1-yl]sulfonylamino]anilino]-4-oxo-quinazolin-3-yl]butanoic acid]	48.3	11.6	≥ 10000	≥ 10
CN(C1CC1)S(=O)(=O)Nc1cccc(Nc2ccc3ncn(CCCC(=O)OC(C)(C)C)c(=O)c3c2)c1C#N [Example 42, tert-butyl 4-[6-[2-cyano-3-[[cyclopropyl(methyl)sulfamoyl]amino]anilino]-4-oxo-quinazolin-3-yl]butanoate]	203	79.2	162	6.2

These reach a lower Kd [1]. Values come first.

Kd [1] [nM]	Kd [2] [nM]	IC50 [3] [nM]	EC50 [4] [µM]	SMILES
28.4	16.3	6.99	6.86	CCN(C)S(=O)(=O)Nc1ccc(F)c(Oc2ccc3ncn(CCN4CCN(C(=O)OC(C)(C)C)CC4)c(=O)c3c2)c1C#N [Example 27, tert-butyl 4-[2-[6-[2-cyano-3-[[ethyl(methyl)sulfamoyl]amino]-6-fluoro-phenoxy]-4-oxo-quinazolin-3-yl]ethyl]piperazine-1-carboxylate]
33.7	19.6	144	0.836	CN(Cc1ccc(CCCn2cnc3ccc(Oc4c(F)ccc(NS(=O)(=O)C5CCCC5)c4C#N)cc3c2=O)cc1)C(=O)OC(C)(C)C [Example 28, tert-butyl N-[[4-[3-[6-[2-cyano-3-(cyclopentylsulfonylamino)-6-fluoro-phenoxy]-4-oxo-quinazolin-3-yl]propyl]phenyl]methyl]-N-methyl-carbamate]
19.2	7.43	18.1	3.67	CCC(C)S(=O)(=O)Nc1ccc(F)c(Oc2ccc3ncn(CCN4CCN(C(=O)OC(C)(C)C)CC4)c(=O)c3c2)c1C#N (centres unmarked) [Example 29, tert-butyl 4-[2-[6-[2-cyano-6-fluoro-3-(sec-butylsulfonylamino)phenoxy]-4-oxo-quinazolin-3-yl]ethyl]piperazine-1-carboxylate]
12.1	6.15	52.4	0.455	CN(Cc1ccc(CCCn2cnc3ccc(Oc4c(F)ccc(NS(=O)(=O)N5CCCC5)c4C#N)cc3c2=O)cc1)C(=O)OC(C)(C)C [Example 30, tert-butyl N-[[4-[3-[6-[2-cyano-6-fluoro-3-(pyrrolidin-1-ylsulfonylamino)phenoxy]-4-oxo-quinazolin-3-yl]propyl]phenyl]methyl]-N-methyl-carbamate]
20.9	7.92	12.9	7.22	CC(C)(C)OC(=O)CCCn1cnc2ccc(Nc3cccc(NS(=O)(=O)N4CC[C@@H](F)C4)c3C#N)cc2c1=O [Example 35, tert-butyl 4-[6-[2-cyano-3-[[(3R)-3-fluoropyrrolidin-1-yl]sulfonylamino]anilino]-4-oxo-quinazolin-3-yl]butanoate]
43.7	20.8	80.6	4.47	CC(C)(C)OC(=O)N1CCC(CCn2cnc3ccc(Nc4cccc(NS(=O)(=O)N5CC[C@@H](F)C5)c4C#N)cc3c2=O)CC1 [Example 37, tert-butyl 4-[2-[6-[2-cyano-3-[[(3R)-3-fluoropyrrolidin-1-yl]sulfonylamino]anilino]-4-oxo-quinazolin-3-yl]ethyl]piperidine-1-carboxylate]
7.88	3.71	334	≥ 10	CC(C)(C)OC(=O)N1CCN(C(=O)CCCn2cnc3ccc(Nc4cccc(NS(=O)(=O)N5CC[C@@H](F)C5)c4C#N)cc3c2=O)CC1 [Example 40, tert-butyl 4-[4-[6-[2-cyano-3-[[(3R)-3-fluoropyrrolidin-1-yl]sulfonylamino]anilino]-4-oxo-quinazolin-3-yl]butanoyl]piperazine-1-carboxylate]
9.29	6.19	1510	≥ 10	CC(C)(C)OC(=O)N1CCC(NC(=O)CCCn2cnc3ccc(Nc4cccc(NS(=O)(=O)N5CC[C@@H](F)C5)c4C#N)cc3c2=O)CC1 [Example 41]
7.18	4.47	74.6	5.61	CC(C)(C)OC(=O)NCCCn1cnc2ccc(Nc3cccc(NS(=O)(=O)N4CC[C@@H](F)C4)c3C#N)cc2c1=O [Example 43, tert-butyl N-[3-[6-[2-cyano-3-[[(3R)-3-fluoropyrrolidin-1-yl]sulfonylamino]anilino]-4-oxo-quinazolin-3-yl]propyl]carbamate]
